Experimental data taken from ChEMBL document CHEMBL1130593, “The importance of GLU361 position in the reaction catalyzed by cholesterol oxidase” (Bioorg Med Chem Lett, 1998).

Tests used:
Streptomyces [1] = test: Steady-state kinetic parameter on wild-type cholesterol oxidase
Streptomyces [2] = test: Steady-state kinetic parameter on E361D mutant cholesterol oxidase

SMILES | Km (Streptomyces [1]) [µM] | k cat (Streptomyces [1]) [s⁻¹] | Km (Streptomyces [2]) [µM] | k cat (Streptomyces [2]) [s⁻¹]
CC(C)CCC[C@@H](C)[C@H]1CC[C@H]2[C@@H]3CC=C4C[C@@H](O)CC[C@]4(C)[C@H]3CC[C@]12C | 3 | 44 | 0.6 | 4.2
CC(C)CCC[C@@H](C)[C@H]1CC[C@H]2[C@@H]3CC=C4CC(=O)CC[C@]4(C)[C@H]3CC[C@]12C | 6.2 | 64 | 1.4 | 0.2
